Data on 4 compounds can be found in ChEMBL document CHEMBL1201862, “PubChem BioAssay data set” (2004).

SMILES strings stand for the structures.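 All cell lines were grown in 96-well plates and treated with compound for 48 hours. GI50 marks 50% less growth.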 Active and inactive are the calls of the source. Cut-off read from the data, not from the text of the source: active = GI50 up to about 1.1 µM and inactive = higher. Some results are limits rather than exact numbers.

Among the test systems are ACHN; BT-549; CAKI-1; COLO 205; EKVX; HCC 2998; HCT-116; HOP-92; LOX IMVI; MDA-MB-231; Malme-3M; NCI-H226; NCI-H23; NCI-H522; NCI/ADR-RES; OVCAR-8; SF-539; SNB-75; T47D; UO-31.
Assay in all cases: growth of human tumour cells (NCI), 48 h

For `Cc1ccc([S@+]([O-])c2occc2C=O)cc1`, the GI50 was 15.4 µM (inactive) with ACHN; 12 µM (inactive) in the experiment with BT-549; 17.1 µM (inactive) in the experiment on CAKI-1; 14.9 µM (inactive) in the experiment with COLO 205; 19.8 µM (inactive) in the experiment on EKVX; 14.5 µM (inactive) in the experiment on HCC 2998. Further, the GI50 was 3.03 µM (inactive) in the experiment on HCT-116; 3.27 µM (inactive) with HOP-92; 1.81 µM (inactive) in the experiment on LOX IMVI; 8.65 µM (inactive) in the experiment on MDA-MB-231; 3.7 µM (inactive) with Malme-3M; 19.4 µM (inactive) in the experiment with NCI-H226. For the same compound, the GI50 is 14.5 µM (inactive) in the experiment with NCI-H23; 15.4 µM (inactive) in the experiment on NCI-H522; 11 µM (inactive) in the experiment with NCI/ADR-RES; 9.93 µM (inactive) in the experiment with OVCAR-8; 11.4 µM (inactive) in the experiment with SF-539; 12.1 µM (inactive) in the experiment on SNB-75. In addition, the GI50 is 2.43 µM (inactive) in the experiment on T47D and 11.1 µM (inactive) in the experiment on UO-31.
As to `CCOC(=O)c1cn2c(n1)sc1cc(F)ccc12`, the GI50 is > 100 µM (inactive) in the experiment on ACHN; 77.6 µM (inactive) with BT-549; > 100 µM (inactive) in the experiment with CAKI-1; > 100 µM (inactive) in the experiment with COLO 205; > 100 µM (inactive) in the experiment with EKVX; > 100 µM (inactive) in the experiment on HCC 2998. Besides, the GI50 is 50.6 µM (inactive) in the experiment with HCT-116; > 100 µM (inactive) in the experiment on HOP-92; 80.7 µM (inactive) with LOX IMVI; 92.7 µM (inactive) in the experiment with MDA-MB-231; > 100 µM (inactive) in the experiment on Malme-3M; > 100 µM (inactive) in the experiment on NCI-H226. In addition, the GI50 in the experiment on NCI-H23 is > 100 µM (inactive); in the experiment on NCI-H522, > 100 µM (inactive); in the experiment with NCI/ADR-RES, > 100 µM (inactive); in the experiment on OVCAR-8, > 100 µM (inactive); in the experiment with SF-539, 99.5 µM (inactive); in the experiment on SNB-75, 58.5 µM (inactive). Moreover, the GI50 in the experiment with T47D and with UO-31 was > 100 µM (inactive) in each case.
`COc1ccc(NS(=O)(=O)c2ccc3ncn(NS(=O)(=O)c4ccc(I)cc4)c(=O)c3c2)cc1`: the GI50 was > 100 µM (inactive) in the experiment with ACHN; > 10 µM (inactive) with BT-549; > 100 µM (inactive) in the experiment on CAKI-1; > 100 µM (inactive) in the experiment on COLO 205; > 100 µM (inactive) in the experiment on EKVX; > 100 µM (inactive) with HCC 2998. The GI50 with HCT-116 was > 100 µM (inactive); in the experiment on HOP-92, > 100 µM (inactive); in the experiment with LOX IMVI it was 8.77 µM (inactive); in the experiment on MDA-MB-231, > 100 µM (inactive); in the experiment with Malme-3M, > 100 µM (inactive); in the experiment with NCI-H226, 9.86 µM (inactive). Further, the GI50 in the experiment on NCI-H23, in the experiment with NCI-H522, with NCI/ADR-RES, in the experiment on OVCAR-8, in the experiment with SF-539 and with SNB-75 was > 100 µM (inactive) in each case. Besides, the values for the GI50 in the experiment with T47D and in the experiment with UO-31 were > 100 µM (inactive) and 43.3 µM (inactive), respectively.
As to `O=P1(NCCCl)OCCC(OO)N1CCCl` (stereo not given), the GI50 in the experiment with ACHN is 14.4 µM (inactive); with BT-549, 39.5 µM (inactive); in the experiment on CAKI-1, 18.3 µM (inactive); in the experiment with COLO 205 it was 33.1 µM (inactive); in the experiment with EKVX, > 100 µM (inactive); in the experiment with HCC 2998, > 100 µM (inactive). The GI50 in the experiment on HCT-116 was 15.8 µM (inactive); with HOP-92 it was 16.8 µM (inactive); in the experiment with LOX IMVI it was 1.82 µM (inactive); with MDA-MB-231 it was > 100 µM (inactive); with Malme-3M, 17.3 µM (inactive); with NCI-H226 it was > 100 µM (inactive). Further, the GI50 in the experiment on NCI-H23 was 28.4 µM (inactive); in the experiment on NCI-H522 it was 11.5 µM (inactive); in the experiment on NCI/ADR-RES, 28.7 µM (inactive); in the experiment on OVCAR-8, 46.1 µM (inactive); in the experiment with SF-539, 16.9 µM (inactive); with SNB-75, 32.7 µM (inactive). Also, the values for the GI50 in the experiment with T47D and in the experiment on UO-31 were 0.316 µM (active) and > 64.3 µM (inactive), respectively.
